In PubChem BioAssay (NCI) one finds TGI data, which are given here for eight compounds.

Each structure is given as a SMILES string.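 Dose response: 5 concentrations. Exposure: 48 h. Format: 96-well plates. Endpoint: linear interpolation; highest concentration if not reached. The concentration for full growth arrest is given as TGI.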

Test systems include COLO 205 colon; HL-60(TB) leukemia; HS 578T breast; IGROV1 ovarian; KM12 colon; M14 melanoma; MALME-3M melanoma; NCI-H23 lung; NCI-H460 lung; RPMI-8226 leukemia; SF-295 CNS; T-47D breast; U251 CNS; A498 renal; HOP-92 NSCLC; K-562 leukemia; NCI/ADR-RES ovarian; SF-539 CNS.
Holding throughout (test): NCI tumour cell line growth inhibition, 48 h

`NNC(=S)NCCNC(=S)NN`: the TGI in the assay on COLO 205 colon, in the assay on HL-60(TB) leukemia, in the assay on HS 578T breast, in the assay with IGROV1 ovarian, in the assay on KM12 colon and with M14 melanoma was greater than 100 µM throughout. Also, the TGI in the assay on MALME-3M melanoma, with NCI-H23 lung, in the assay with NCI-H460 lung, with RPMI-8226 leukemia, with SF-295 CNS and with T-47D breast was greater than 100 µM in each case. In the assay with U251 CNS, this compound displayed a TGI greater than 100 µM.

Take `CC(=O)Oc1c(N2CCCCC2)c(C(=O)c2ccccc2)c(O)c2ccn(N(C)C)c12`: the TGI is 29.1 µM with A498 renal; 33.3 µM with COLO 205 colon; 29.5 µM with HL-60(TB) leukemia; 88.6 µM in the assay on HOP-92 NSCLC; 66.8 µM in the assay on HS 578T breast; greater than 100 µM with K-562 leukemia. In addition, the TGI turned out to be 27.1 µM with KM12 colon; 53.7 µM in the assay with M14 melanoma; 31.8 µM in the assay on MALME-3M melanoma; 38.5 µM with NCI-H23 lung; 51.2 µM in the assay on NCI-H460 lung; 42.3 µM in the assay on NCI/ADR-RES ovarian. The TGI stood at 44.8 µM in the assay on RPMI-8226 leukemia, 42.4 µM with SF-295 CNS, 35.9 µM in the assay on SF-539 CNS and 33.5 µM in the assay with U251 CNS.

As for `CC(=O)Nc1c(S(=O)(=O)c2ccccc2)c(C)c(C)n1Cc1ccccc1`, the TGI with A498 renal, with COLO 205 colon, with HL-60(TB) leukemia, with HOP-92 NSCLC, with HS 578T breast and with IGROV1 ovarian was greater than 100 µM each time. The TGI with K-562 leukemia, in the assay on KM12 colon, with M14 melanoma, with MALME-3M melanoma, with NCI-H23 lung and with NCI-H460 lung was greater than 100 µM each time. Besides, the TGI with NCI/ADR-RES ovarian, in the assay on RPMI-8226 leukemia, in the assay on SF-295 CNS and in the assay on U251 CNS was greater than 100 µM in each case.

With `CC(=O)NC(C)(C)C1CCC(C)=C(c2ccccc2)C1` (stereo not drawn), the TGI in the assay on COLO 205 colon is greater than 100 µM; in the assay on HL-60(TB) leukemia it was greater than 100 µM; with HOP-92 NSCLC, 68.4 µM; with IGROV1 ovarian, greater than 100 µM; in the assay on K-562 leukemia, greater than 100 µM; in the assay on KM12 colon, greater than 100 µM. Also, the TGI in the assay with M14 melanoma, with NCI-H23 lung, with NCI-H460 lung, in the assay with SF-295 CNS, with SF-539 CNS and with T-47D breast was greater than 100 µM in each case. The compound further showed a TGI in the assay with U251 CNS greater than 100 µM.

Take `COc1cc(OC)c2c3c(OC)cc(OC)c4c(=O)c(O)c(C[C@@H](C)O)c(c5c(C[C@@H](C)O)c(O)c(=O)c1c25)c43`: the TGI is 71.8 µM in the assay on A498 renal; 16.7 µM with COLO 205 colon; 30.7 µM with HL-60(TB) leukemia; 35.4 µM in the assay on HOP-92 NSCLC; 49.2 µM in the assay on IGROV1 ovarian; 83.2 µM in the assay on KM12 colon. In addition, the TGI in the assay with M14 melanoma is 47 µM; in the assay with NCI-H23 lung it was 40 µM; with NCI-H460 lung, greater than 100 µM; in the assay on NCI/ADR-RES ovarian, greater than 100 µM; in the assay with SF-295 CNS, greater than 100 µM; in the assay with SF-539 CNS, 93.5 µM. Moreover, the figures for the TGI in the assay with T-47D breast and with U251 CNS were 44.5 µM and 67.9 µM, respectively.

As to `C/C=C1\CN(C(=O)OC(C)(C)C)C1C(=O)OC(C)(C)C` (stereo not drawn), the TGI in the assay on A498 renal, in the assay on COLO 205 colon, in the assay on HL-60(TB) leukemia, with HOP-92 NSCLC, with HS 578T breast and in the assay with IGROV1 ovarian was greater than 100 µM in each case. Further, the TGI in the assay with K-562 leukemia, with M14 melanoma, in the assay with MALME-3M melanoma, in the assay with NCI-H23 lung, with NCI-H460 lung and in the assay with NCI/ADR-RES ovarian was greater than 100 µM throughout. Besides, the TGI in the assay with RPMI-8226 leukemia, in the assay with SF-295 CNS and in the assay on SF-539 CNS was greater than 100 µM in each case.

As to `CC(C)(C)OC(=O)CN1CCNCCN(CC(=O)OC(C)(C)C)CCNCC1`, the TGI in the assay with A498 renal, with COLO 205 colon, in the assay with HL-60(TB) leukemia, in the assay with HOP-92 NSCLC, in the assay with HS 578T breast and in the assay with IGROV1 ovarian was greater than 100 µM each time. For the same compound, the TGI with K-562 leukemia, in the assay on KM12 colon, in the assay with NCI-H460 lung, with NCI/ADR-RES ovarian, in the assay with RPMI-8226 leukemia and in the assay on SF-295 CNS was greater than 100 µM in each case. The TGI in the assay with SF-539 CNS and with U251 CNS was greater than 100 µM each time.

For `S=c1[nH]n2c(CCCCCCCCc3nnc4sc(=S)[nH]n34)nnc2s1`, the TGI with A498 renal, in the assay with COLO 205 colon, in the assay on HL-60(TB) leukemia, in the assay on HOP-92 NSCLC, in the assay with IGROV1 ovarian and in the assay on K-562 leukemia was greater than 100 µM throughout. The TGI in the assay on KM12 colon, with M14 melanoma, with MALME-3M melanoma, in the assay on NCI-H23 lung, in the assay on NCI-H460 lung and with NCI/ADR-RES ovarian was greater than 100 µM throughout. Moreover, the TGI in the assay with RPMI-8226 leukemia, in the assay with SF-295 CNS, with SF-539 CNS, in the assay on T-47D breast and in the assay with U251 CNS was greater than 100 µM throughout.
